Read-outs that look alike come from different tables or passages of the source.
Tests used:
[1] = tested on: radish plants; experiment: Whole plant herbicidal bioassay on radish; assay type: in vivo; parameters: Control, Day-1 Reading, Replicate 1 / Control, Day-1 Reading, Replicate 2 / Control, Day-1 Reading, Replicate 3 / Control, Day-1 Reading, AVG / Control, Day-7 Reading, Replicate 1 / Control, Day-7 Reading, Replicate 2 / Control, Day-7 Reading, Replicate 3 / Control, Day-7 Reading, AVG: scale not given here; conditions: 10 mg/ml; for Control, Day-1 Reading, AVG / Control, Day-1 Reading, Replicate 1 / Control, Day-1 Reading, Replicate 2 / Control, Day-1 Reading, Replicate 3 / Control, Day-7 Reading, AVG / Control, Day-7 Reading, Replicate 1 / Control, Day-7 Reading, Replicate 2 / Control, Day-7 Reading, Replicate 3: foliar spray
Procedure: Healthy radish plants with two to three true leaves were selected for testing. The radish plants are 13 days old at treatment. The plants are sorted so that all treatments are equivalent in foliage surface area and plant height. The pots are labeled with treatment number and repetition number. Three repetitions per treatment are tested.
Ten fractions of MBI-206 formulated product are tested. The fractions are at a concentration of 10 mg/ml. The crude extracts of the formulated product and broth are also tested. An untreated control (treated with deionized water) and a positive control (RoundUp Super Concentrate at a rate of 2.5 fluid ounces per gallon) are included in the test.
All products and treatments are well shaken prior to application. Treatments are applied using a nozzle from a 2-ounce spray bottle. Separate spray nozzles were used for each treatment. […] Two milliliters of each treatment are sprayed simultaneously over the three repetitions of each treatment so that each plant is treated with approximately 0.67 milliliters of treatment solution.
The plants are allowed to air dry and are then randomized in holding trays. Each tray is labeled with the experiment name and treatment date and placed on the laboratory greenhouse shelves. The laboratory greenhouse maintains a temperature of 70-80° F. and a relative humidity of 30-40%. Throughout the bioassay, plants are watered from below by filling the holding trays with an appropriate amount of water so that plant foliage remained dry.
Symptoms included foliage burning and plant stunting. The following rating scale, shown in Table 4 is used to quantify efficacy. Ratings are determined by observing the following factors relative to the plants of the untreated control: overall plant health, average plant height, and foliage health. Symptoms of affected plants may include discolored/spotted/burnt/bleached foliage, warped/twisted/curled leaves, side branching (due to damaged apical meristem), plant dieback, or death.
The pure compounds (butyl paraben [MBI206-FP-F5H32] and hexyl paraben [MBI206-FP-F5H40]) obtained from fraction 5 were tested at a concentration of 10 mg/ml. An untreated control (treated with deionized water), the formulation blank (at 3% v/v & 10% v/v), and a positive control (RoundUp Super Concentrate at a rate of 2.5 fluid ounces per gallon) are included in the test.

[2] = tested on: Beet Armyworm (Spodoptera exigua); experiment: 96-well diet overlay assay with 1st instar Beet Armyworm larvae; assay type: in vivo; conditions: for mortality at 40 µg/disc: Spodoptera exigua
Procedure: The insecticidal activity of butyl paraben (MBI206-FP-F5H32) and hexyl paraben (MBI206-FP-F5H40) were tested in a laboratory assay using a 96-well diet overlay assay with 1st instar Beet Armyworm (Spodoptera exigua) larvae using microtiter plates with 200 ul of solid, artificial Beet Armyworm diet in each well. One hundred (100) microliters of each test sample (containing 40 ug of sample) is pipetted on the top of the diet (one sample in each well), and the sample is let dry under flowing air until the surface is dry. Each sample was tested in six replicates, and water and a commercial Dipel product are used as negative and positive controls, respectively. One first instar larvae of the test insect (Beet armyworm—Spodoptera exigua) was placed in each well, and the plate was covered with plastic cover with airholes. The plates with insects were incubated at 26° C. for 6 days with daily mortality evaluations.

[3] = tested on: M. incognita; experiment: In vitro 96-well nematode immobility bioassay, trial T1; assay type: in vivo; conditions: 3 μl of 20 mg/ml to 50 μl, 24 hour, 25° C
Procedure: (§1) The pure sample of butyl paraben and hexyl paraben was used in an in vitro 96-well plastic cell-culture plate bioassay. 15-20 nematodes in a 50 μl water solution were exposed to 3 μl of a 20 mg/ml peak concentrate for a 24 hour period at 25° C. Once the incubation period was completed, results were recorded based on a visual grading of immobility of the juvenile nematodes (J2's) in each well treated with compounds; each treatment was tested in replicate of 4 wells. […] Three controls are included in each trial; 1 positive (1% Avid) & 2 negative (DMSO & water). Trials (T1) was carried out using M. incognita nematodes and trail (T2) was carried out using M. hapla nematodes, the samples were dissolved in 100% DMSO.

[4] = tested on: M. hapla; experiment: In vitro 96-well nematode immobility bioassay, trial T2; assay type: in vivo; conditions: 3 μl of 20 mg/ml to 50 μl, 24 hour, 25° C
Procedure: as §1

[5] = tested on: M. incognita and M. hapla; experiment: In vitro 96-well nematode immobility bioassay, mean of trials T1 and T2; assay type: in vivo; conditions: 3 μl of 20 mg/ml to 50 μl, 24 hour, 25° C
Procedure: as §1

[6] = tested on: Chlamydomonas reinhardtii; experiment: Control of Chlamydomonas reinhardtii by purified compounds, fluorescence at 680 nm; assay type: cell-based; conditions: 72 hours
Procedure: Purified compounds from Burkholderia sp. fermentation broth was tested for algaicidal activity against Chlamydomonas reinhardtii. An increasing volume of the purified compounds (20 mg/mL in ethanol) was added to a clear 48 well polystyrene plate with 750 micro liters of the specified algae growing. Each treatment was done in two replicates and the solvent used as a negative control. The plate was closed with a lid and incubated for 72 hours under constant light at room temperature. After 72 hours the fluorescence (at 680 nm) of the suspension in each well was measured using a SpectraMax M2 plate reader, and the reduction in fluorescence compared with the negative control was converted into percent control of algal growth. Each sample was visually compared to the negative control; a well that was visually clearer than the negative control was scored as active. […] Tests were run in two replicates and %. Control was calculated as a reduction of fluorescence at 680 nm compared with the negative control. Each sample was visually compared to the negative control; a well that was visually clearer than the negative control was scored as active.

[7] = tested on: Lygus hesperus; experiment: 12 well plate treated green beans bioassay, Lygus hesperus late 2nd/early 3rd instar; assay type: in vivo; conditions: Lygus hesperus; green beans dipped in 0.25 mg/mL; scored at 24, 48 and 120 hours
Procedure: The insecticidal activity of the four compounds, templamide A, templamide B, FR901465 & FR901228 isolated from Burkholderia were tested in a laboratory assay using a 12 well plate with treated green beans bioassay system. The compound was dissolved in 100% ethanol to concentrations of […] and 500 μL of this sample was added to 3.5 mL of water to make a total volume of 4 mL containing 0.25 mg/mL concentration of the compound. Green beans were washed earlier in bleach solution and then sat in water to rinse. Beans were dried before using and then were cut with scissors to fit into wells of 12-well plate. With the help of forceps the beans were dunked into a 15 mL plastic falcon tube containing each treatment and then submerged in treatment for exactly one min. one bean part was put into each well and then individual late 2nd/early 3rd instar Lygus hesperus, were placed in wells with help of brush. Plate sealer was used to cover tray and hole poked into the plate sealer for aeration. The numbers of Lygus/well were counted and plates were placed on brench top. Larvae were scored at 24, 48 and 120 hours after application. […] The positive control used in this testing was Avid (Avemectin) at the rate of 13 μL/10 mL.

[8] = tested on: Free living nematodes (FLN); experiment: In vitro 96-well nematode immobility bioassay of FR901228, trial T1; assay type: in vivo; conditions: 3 μl of 20 mg/ml to 50 μl, 24 hour, 25 C
Procedure: (§2) The pure sample of FR 901228 was tested using an in vitro 96-well plastic cell-culture plate bioassay. 15-20 nematodes in a 50 μl water solution were exposed to 3 μl of a 20 mg/ml solution of FR 901228 for a 24 hour period at 25 C. Once the incubation period was completed, results were recorded based on a visual grading of immobility of the juvenile nematodes (J2's) in each well treated with compounds; each treatment was tested in replicate of 4 wells. Three controls are included in each trial; 1 positive (1% Avid) & 2 negative (DMSO & water). Trials (T1) was carried out using Free living nematodes (FLN) and trail (T2) was carried out using M. incognita nematodes, the samples were dissolved in 100% DMSO.

[9] = tested on: M. incognita; experiment: In vitro 96-well nematode immobility bioassay of FR901228, trial T2; assay type: in vivo; conditions: 3 μl of 20 mg/ml to 50 μl, 24 hour, 25 C
Procedure: as §2

[10] = tested on: milkweed bugs (Oncopeltus fasciatus); experiment: Sucking contact bioassay on milkweed bugs; assay type: in vivo; conditions: 1 μL of 1 mg/mL in ethanol onto abdomen of 4th instar; scored at 4 and 7 day
Procedure: The insecticidal activity of the pure compounds templamide B (MBI 206; MW 537), FR 901465 (MBI 206; MW 523) and FR901228 (MBI 206; MW 540) were tested in a laboratory assay using a sucking contact bioassay system. The compounds were dissolved in 100% ethanol to concentrations of 1 mg/mL. Individual 4th instar milkweed bugs, penultimate nymph, larvae were placed in 5C Rubbermaid container with 2 sunflower seeds in each tub and 1 water cup (water in contact cup with cotton wick) into each tub. A Hamilton Micropipette was used to apply 1 μL (1 drop) of compound onto abdomen of milkweed bugs (MWB) of each larvae. Tubs were place into the Rubbermaid container and cap with mesh lid. Eight larvae per sample were treated. The assay was incubated at 25° C., 12 h light/12 h dark. Larvae were scored at 4 and 7 day after application. […] Thus, FR 901465 provided a better (87.5%) control of milkweed bugs, than FR 901228 (MW 540) and templamide B (FIG. 4).

[11] = 72 h, read-out: Insecticidal bioassay data (mortality), Day 3
[12] = 96 h, read-out: Insecticidal bioassay data (mortality), Day 4
[13] = 5 μL of sample (20 mg/mL in ethanol) per 750 μL of algae
[14] = 5 μL of sample per 750 μL of algae
[15] = 11 μL of sample (20 mg/mL in ethanol) per 750 μL of algae
[16] = 11 μL of sample per 750 μL of algae
[17] = 22.5 μL of sample (20 mg/mL in ethanol) per 750 μL of algae
[18] = 22.5 μL of sample per 750 μL of algae, well visually clearer than negative control scored as active

SMILES | Control, Day-1 Reading, AVG [1] | Control, Day-1 Reading, Replicate 1 [1] | Control, Day-1 Reading, Replicate 2 [1] | Control, Day-1 Reading, Replicate 3 [1] | Control, Day-7 Reading, AVG [1] | Control, Day-7 Reading, Replicate 1 [1] | Control, Day-7 Reading, Replicate 2 [1] | Control, Day-7 Reading, Replicate 3 [1] | mortality at 40 µg/disc [2, 11] [%] | mortality at 40 µg/disc [2, 12] [%] | % immobility (trial # T1) [3] [%] | immobility against M. incognita [3] [%] | % immobility (trial # T2) [4] [%] | Mean % immobility [5] [%] | % Control [6, 13] [%] | Visual [6, 14] | % Control [6, 15] [%] | Visual [6, 16] | % Control [6, 17] [%] | Visual [6, 18] | other results
CCCCOC(=O)c1ccc(O)cc1 [Butyl paraben, butyl paraben] | 18.3 | 25 | 5 | 25 | 24.2 | 25 | 10 | 37.5 | 8.93 | 8.93 | 75 | 81.25 | 87.5 | 81.25 | – | – | – | – | – | – | mortality ([2]; 40 ug of sample per well, text summary of Table 7): 9%
C/C=C1\NC(=O)[C@H]2CSSCC/C=C/[C@H](CC(=O)N[C@H](C(C)C)C(=O)N2)OC(=O)[C@H](C(C)C)NC1=O [FR901228] | – | – | – | – | – | – | – | – | – | – | – | – | – | – | 89.48 | Active | 99.36 | Active | 98.71 | Active | mortality at 250 µg/mL [7]: 51.7%; immobility [8]: 75%; immobility [9]: 75%
CC(=O)OC(C)/C=C\C(=O)NC1CC(C)C(C/C=C(C)/C=C/C2OC(C)(O)C(O)C3(CO3)C2O)OC1C (centres unmarked) [FR901465] | – | – | – | – | – | – | – | – | – | – | – | – | – | – | −86.58 | Not Active | −33.58 | Not Active | −3.887 | Not Active | control of milkweed bugs [10]: 87.5%; mortality at 250 µg/mL [7]: 91.2%
CCCCCCOC(=O)c1ccc(O)cc1 [Hexyl paraben, hexyl paraben] | 75.0 | 75 | 75 | 75 | 87.5 | 87.5 | 87.5 | 87.5 | 50 | 70.8 | 87.5 | 93.75 | 100 | 93.75 | – | – | – | – | – | – | herbicidal potency in words ([1]; compared with butyl paraben): most potent herbicidal compound
